Experimental findings from ChEMBL document CHEMBL4145497, “Discovery of 2-aminothiazolyl berberine derivatives as effectively antibacterial agents toward clinically drug-resistant Gram-negative Acinetobacter baumanii” (Eur J Med Chem, 2018) are described below.

In brackets after ≈: the same amount, converted by molar mass.

Common to all, as to assay type: functional
Assay [1] concerns Staphylococcus aureus. In words: Antibacterial activity against Staphylococcus aureus ATCC 25923 after 18 to 24 hrs by CLSI two fold serial dilution method.
Assay [2] deals with Staphylococcus aureus. In words: Antibacterial activity against methicillin-resistant Staphylococcus aureus N315 after 18 to 24 hrs by CLSI two fold serial dilution method.
A further assay relates to Bacillus subtilis. In words: Antibacterial activity against Bacillus subtilis ATCC 21216 after 18 to 24 hrs by CLSI two fold serial dilution method.
The next assay relates to Micrococcus luteus. Nature of the assay: Antibacterial activity against Micrococcus luteus ATCC 4698 after 18 to 24 hrs by CLSI two fold serial dilution method.
Another assay concerns Enterococcus faecalis. In words: Antibacterial activity against drug-resistant Enterococcus faecalis after 18 to 24 hrs by CLSI two fold serial dilution method.
The subject of assay [3] is Escherichia coli. Nature of the assay: Antibacterial activity against Escherichia coli DH52 after 18 to 24 hrs by CLSI two fold serial dilution method.
Assay [4] deals with Escherichia coli. In words: Antibacterial activity against drug-resistant Escherichia coli after 18 to 24 hrs by CLSI two fold serial dilution method.
The test system of assay [5] is Pseudomonas aeruginosa. Nature of the assay: Antibacterial activity against Pseudomonas aeruginosa ATCC 27853 after 18 to 24 hrs by CLSI two fold serial dilution method.
For assay [6], the system named is Pseudomonas aeruginosa. Nature of the assay: Antibacterial activity against drug-resistant Pseudomonas aeruginosa after 18 to 24 hrs by CLSI two fold serial dilution method.
The next assay has as its system Klebsiella pneumoniae. Nature of the assay: Antibacterial activity against drug-resistant Klebsiella pneumoniae after 18 to 24 hrs by CLSI two fold serial dilution method.
For a further assay, the system named is Acinetobacter baumannii. In words: Antibacterial activity against drug-resistant Acinetobacter baumannii after 18 to 24 hrs by CLSI two fold serial dilution method.
Assay [7] has as its system Candida albicans. In words: Antifungal activity against Candida albicans ATCC 76615 by CLSI two fold serial dilution method.
Another assay relates to Cyberlindnera jadinii. Nature of the assay: Antifungal activity against Candida utilis ATCC 9950 by CLSI two fold serial dilution method. The settings on record: Williopsis jadinii.
The next assay relates to Pichia norvegensis. In words: Antifungal activity against Candida mycoderma ATCC 96918 by CLSI two fold serial dilution method.
Another assay relates to Aspergillus flavus. Nature of the assay: Antifungal activity against Aspergillus flavus ATCC 204304 by CLSI two fold serial dilution method.
A further assay deals with Saccharomyces cerevisiae. In words: Antifungal activity against Saccharomyces cerevisiae ATCC 9763 by CLSI two fold serial dilution method.
Another assay deals with Candida parapsilosis. Nature of the assay: Antifungal activity against Candida parapsilosis ATCC 22019 by CLSI two fold serial dilution method. The settings on record: Lodderomyces parapsilosis.
Assay [8] relates to Candida albicans. Nature of the assay: Antifungal activity against drug-resistant Candida albicans by CLSI two fold serial dilution method.
A further assay concerns Candida tropicalis. In words: Antifungal activity against drug-resistant Candida tropicalis by CLSI two fold serial dilution method.
The next assay has as its system Aspergillus fumigatus. In words: Antifungal activity against drug-resistant Aspergillus fumigatus by CLSI two fold serial dilution method.

`CCOc1c(OC)cc(/C=N/NC(N)=S)c2c1CN1CCc3cc4c(cc3C1C2)OCO4` (stereo unspecified): the MIC in the assay on Staphylococcus aureus [1] came to 70 µM (≈ 31.8 µg/mL); against Staphylococcus aureus [2] it was 140 µM (≈ 63.6 µg/mL); in the assay on Bacillus subtilis, 280 µM (≈ 127 µg/mL); in the assay with Micrococcus luteus it was 140 µM (≈ 63.6 µg/mL); in the assay with Enterococcus faecalis, 140 µM (≈ 63.6 µg/mL); against Escherichia coli [3] it was 280 µM (≈ 127 µg/mL). Moreover, the minimal inhibitory concentration (MIC) was 280 µM (≈ 127 µg/mL) in the assay with Escherichia coli [4]; 70 µM (≈ 31.8 µg/mL) against Pseudomonas aeruginosa [5]; 70 µM (≈ 31.8 µg/mL) in the assay with Pseudomonas aeruginosa [6]; 280 µM (≈ 127 µg/mL) against Klebsiella pneumoniae; 140 µM (≈ 63.6 µg/mL) with Acinetobacter baumannii; 140 µM (≈ 63.6 µg/mL) against Candida albicans [7]. In addition, the MIC is 280 µM (≈ 127 µg/mL) in the assay with Cyberlindnera jadinii; 280 µM (≈ 127 µg/mL) against Pichia norvegensis; 560 µM (≈ 255 µg/mL) against Aspergillus flavus; 280 µM (≈ 127 µg/mL) in the assay with Saccharomyces cerevisiae; 70 µM (≈ 31.8 µg/mL) against Candida parapsilosis; 140 µM (≈ 63.6 µg/mL) against Candida albicans [8]. The MIC was determined as 280 µM (≈ 127 µg/mL) against Candida tropicalis and 140 µM (≈ 63.6 µg/mL) against Aspergillus fumigatus.

Regarding `C#CCOc1c(OC)cc(/C=N/Nc2nccs2)c2c1CN1CCc3cc4c(cc3C1C2)OCO4` (stereo unspecified), the minimum inhibitory concentration (MIC) is 130 µM (≈ 63.5 µg/mL) in the assay with Staphylococcus aureus [1]; 520 µM (≈ 254 µg/mL) in the assay with Bacillus subtilis; 520 µM (≈ 254 µg/mL) against Micrococcus luteus; 130 µM (≈ 63.5 µg/mL) with Escherichia coli [3]; 130 µM (≈ 63.5 µg/mL) against Pseudomonas aeruginosa [5]; 260 µM (≈ 127 µg/mL) against Candida albicans [7]. The minimal inhibitory concentration (MIC) against Cyberlindnera jadinii came out at 260 µM (≈ 127 µg/mL); with Pichia norvegensis, 1050 µM (≈ 513 µg/mL); with Aspergillus flavus, 1050 µM (≈ 513 µg/mL); with Saccharomyces cerevisiae it was 1050 µM (≈ 513 µg/mL); against Candida parapsilosis, 130 µM (≈ 63.5 µg/mL).

For `C#CCOc1c(OC)cc(/C=N/NC(N)=S)c2c1CN1CCc3cc4c(cc3C1C2)OCO4` (stereo unspecified), the minimal inhibitory concentration (MIC) in the assay on Staphylococcus aureus [1] turned out to be 70 µM (≈ 32.5 µg/mL); against Staphylococcus aureus [2] it was 30 µM (≈ 13.9 µg/mL); in the assay on Bacillus subtilis it was 550 µM (≈ 256 µg/mL); with Micrococcus luteus, 280 µM (≈ 130 µg/mL); in the assay on Enterococcus faecalis, 550 µM (≈ 256 µg/mL); in the assay with Escherichia coli [3], 140 µM (≈ 65 µg/mL). The minimal inhibitory concentration (MIC) was found to be 140 µM (≈ 65 µg/mL) in the assay with Escherichia coli [4]; 550 µM (≈ 256 µg/mL) in the assay with Pseudomonas aeruginosa [5]; 550 µM (≈ 256 µg/mL) with Pseudomonas aeruginosa [6]; 140 µM (≈ 65 µg/mL) against Klebsiella pneumoniae; 4 µM (≈ 1.86 µg/mL) against Acinetobacter baumannii; 140 µM (≈ 65 µg/mL) against Candida albicans [7]. Moreover, the MIC is 280 µM (≈ 130 µg/mL) in the assay on Cyberlindnera jadinii; 1100 µM (≈ 511 µg/mL) in the assay on Pichia norvegensis; 550 µM (≈ 256 µg/mL) in the assay on Aspergillus flavus; 280 µM (≈ 130 µg/mL) against Saccharomyces cerevisiae; 280 µM (≈ 130 µg/mL) against Candida parapsilosis; 140 µM (≈ 65 µg/mL) against Candida albicans [8]. Also, the MIC against Candida tropicalis was found to be 140 µM (≈ 65 µg/mL); with Aspergillus fumigatus it was 20 µM (≈ 9.29 µg/mL).

In the case of `COc1cc(/C=N/NC(N)=S)c2c(c1OCc1ccc(Cl)c(Cl)c1)CN1CCc3cc4c(cc3C1C2)OCO4` (stereo unspecified), the MIC against Staphylococcus aureus [1] came to 220 µM (≈ 129 µg/mL); against Staphylococcus aureus [2] it was 220 µM (≈ 129 µg/mL); in the assay with Bacillus subtilis it was 220 µM (≈ 129 µg/mL); with Micrococcus luteus it was 440 µM (≈ 258 µg/mL); against Enterococcus faecalis, 440 µM (≈ 258 µg/mL); against Escherichia coli [3], 110 µM (≈ 64.4 µg/mL). In addition, the minimal inhibitory concentration (MIC) was 110 µM (≈ 64.4 µg/mL) in the assay on Escherichia coli [4]; 220 µM (≈ 129 µg/mL) in the assay on Pseudomonas aeruginosa [5]; 220 µM (≈ 129 µg/mL) with Pseudomonas aeruginosa [6]; 220 µM (≈ 129 µg/mL) against Klebsiella pneumoniae; 30 µM (≈ 17.6 µg/mL) in the assay on Acinetobacter baumannii; 440 µM (≈ 258 µg/mL) against Candida albicans [7]. In addition, the MIC against Cyberlindnera jadinii was determined as 220 µM (≈ 129 µg/mL); against Pichia norvegensis, 440 µM (≈ 258 µg/mL); against Aspergillus flavus, 440 µM (≈ 258 µg/mL); against Saccharomyces cerevisiae, 220 µM (≈ 129 µg/mL); against Candida parapsilosis, 220 µM (≈ 129 µg/mL); with Candida albicans [8] it was 440 µM (≈ 258 µg/mL). The MIC against Candida tropicalis was 110 µM (≈ 64.4 µg/mL); with Aspergillus fumigatus it was 3 µM (≈ 1.76 µg/mL).

`CCCCCCCCCCCCOc1c(OC)cc(/C=N/Nc2nccs2)c2c1CN1CCc3cc4c(cc3C1C2)OCO4` (stereo unspecified): the MIC against Staphylococcus aureus [1] is 210 µM (≈ 130 µg/mL); in the assay on Bacillus subtilis it was 30 µM (≈ 18.6 µg/mL); in the assay with Micrococcus luteus, 830 µM (≈ 514 µg/mL); with Escherichia coli [3], 210 µM (≈ 130 µg/mL); in the assay on Pseudomonas aeruginosa [5], 410 µM (≈ 254 µg/mL); in the assay on Candida albicans [7] it was 410 µM (≈ 254 µg/mL). Also, the MIC in the assay with Cyberlindnera jadinii was determined as 410 µM (≈ 254 µg/mL); against Pichia norvegensis, 50 µM (≈ 30.9 µg/mL); in the assay on Aspergillus flavus, 410 µM (≈ 254 µg/mL); in the assay on Saccharomyces cerevisiae, 830 µM (≈ 514 µg/mL); in the assay on Candida parapsilosis, 30 µM (≈ 18.6 µg/mL).

With `OC(Cn1cncn1)(Cn1cncn1)c1ccc(F)cc1F` [FLUCONAZOLE], the MIC in the assay on Candida albicans [7] was 3 µM (≈ 0.919 µg/mL); against Cyberlindnera jadinii, 30 µM (≈ 9.19 µg/mL); in the assay on Pichia norvegensis, 10 µM (≈ 3.06 µg/mL); in the assay with Aspergillus flavus, 840 µM (≈ 257 µg/mL); against Saccharomyces cerevisiae, 50 µM (≈ 15.3 µg/mL); against Candida parapsilosis, 7 µM (≈ 2.14 µg/mL). Moreover, the MIC was 10 µM (≈ 3.06 µg/mL) against Candida albicans [8], 30 µM (≈ 9.19 µg/mL) with Candida tropicalis and 840 µM (≈ 257 µg/mL) against Aspergillus fumigatus.
